We go through 4 compounds from ChEMBL document CHEMBL1201862, “PubChem BioAssay data set” (2004).

Molecules are shown by their SMILES.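 Dose response: 5 concentrations. Exposure: 48 h. Format: 96-well plates. Endpoint: linear interpolation; highest concentration if not reached. GI50 marks 50% less growth.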 Active and inactive are the calls of the source. Rule as the data show it: active = GI50 up to about 1.1 µM and inactive = higher.

Some test systems named below: 786-0; ACHN; EKVX; HOP-62; HOP-92; KM-20L2; MDA-MB-231; Malme-3M; NCI-H23; NCI-H460; OVCAR-3; OVCAR-4; RPMI-8226; SF-295; SK-MEL-2; SK-MEL-5; SK-OV-3; SNB-75; TK-10; UACC-257.
Assay in all cases: growth of human tumour cells (NCI), 48 h

On to `COc1ccc(/C=C2/CSC/C(=C/c3ccc(OC)c(OC)c3)C2=O)cc1OC`, for which the GI50 in the assay on 786-0 was 2.02 µM (inactive); with ACHN, 2.31 µM (inactive); in the assay on EKVX it was 5.86 µM (inactive); with HOP-62 it was 3.67 µM (inactive); with HOP-92 it was 8.93 µM (inactive); in the assay on KM-20L2, 2.3 µM (inactive). Also, the GI50 with MDA-MB-231 is 3.28 µM (inactive); in the assay on Malme-3M it was 4.71 µM (inactive); with NCI-H23, 2.3 µM (inactive); in the assay on NCI-H460 it was 2.23 µM (inactive); in the assay with OVCAR-3 it was 2 µM (inactive); with OVCAR-4 it was 1.71 µM (inactive). The GI50 in the assay on RPMI-8226 is 0.472 µM (active); in the assay with SF-295, 2.44 µM (inactive); in the assay with SK-MEL-2 it was 2.56 µM (inactive); with SK-MEL-5 it was 2.44 µM (inactive); in the assay on SK-OV-3 it was 6.73 µM (inactive); in the assay on SNB-75, 6.4 µM (inactive). Further, the GI50 is 3.9 µM (inactive) in the assay on TK-10 and 4.11 µM (inactive) in the assay on UACC-257.
As to `O=C1C[C@H](c2ccc(O)c(O)c2)Oc2cc(O)cc(O)c21`, the GI50 was > 100 µM (inactive) in the assay on 786-0; 65.8 µM (inactive) in the assay on ACHN; 83.8 µM (inactive) in the assay with EKVX; > 100 µM (inactive) with HOP-62; 56.8 µM (inactive) with HOP-92; > 100 µM (inactive) in the assay with KM-20L2. Further, the GI50 in the assay on Malme-3M is 87.1 µM (inactive); with NCI-H23, > 100 µM (inactive); in the assay with NCI-H460 it was 72.4 µM (inactive); in the assay on OVCAR-3 it was > 100 µM (inactive); in the assay on OVCAR-4, > 100 µM (inactive); in the assay with RPMI-8226 it was > 100 µM (inactive). Also, the GI50 in the assay on SF-295 is > 100 µM (inactive); in the assay on SK-MEL-2, > 100 µM (inactive); in the assay with SK-MEL-5 it was > 100 µM (inactive); in the assay with SK-OV-3 it was > 100 µM (inactive); in the assay with SNB-75, 83.9 µM (inactive); in the assay with TK-10 it was 73.1 µM (inactive). Moreover, in the assay with UACC-257, the GI50 was > 100 µM (inactive).
Consider `O/N=C1/C(=C/c2ccc(Oc3ccccc3)cc2)CCCC1C(NO)c1ccc(Oc2ccccc2)cc1` (configuration not stated), for which the GI50 was 28.6 µM (inactive) in the assay on 786-0; 24 µM (inactive) in the assay on ACHN; 81.3 µM (inactive) in the assay with EKVX; > 100 µM (inactive) in the assay on HOP-62; 17.9 µM (inactive) with HOP-92; 11.2 µM (inactive) with KM-20L2. Moreover, the GI50 with Malme-3M is 44.1 µM (inactive); in the assay with NCI-H23, 16.9 µM (inactive); in the assay on NCI-H460, 27.9 µM (inactive); in the assay on OVCAR-3 it was 32 µM (inactive); in the assay with OVCAR-4, 29.7 µM (inactive); in the assay on RPMI-8226, 18.2 µM (inactive). Also, the GI50 with SF-295 was 41.6 µM (inactive); in the assay on SK-MEL-2, 45.6 µM (inactive); in the assay with SK-MEL-5, 13.4 µM (inactive); in the assay with SK-OV-3, > 100 µM (inactive); with SNB-75, 69.8 µM (inactive); with TK-10, 10.3 µM (inactive). In the assay with UACC-257, the GI50 was 50.1 µM (inactive).
Consider `CCS/C(=N\c1ccccc1)SC`, for which the GI50 in the assay with 786-0, with ACHN, with EKVX, in the assay on HOP-62, in the assay with HOP-92 and with KM-20L2 was > 100 µM (inactive) each time. The GI50 in the assay on Malme-3M, with NCI-H23, in the assay on NCI-H460, in the assay with OVCAR-3, in the assay on OVCAR-4 and in the assay on RPMI-8226 was > 100 µM (inactive) throughout. For the same compound, the GI50 with SF-295 is > 100 µM (inactive); with SK-MEL-2 it was > 100 µM (inactive); with SK-MEL-5 it was > 100 µM (inactive); with SK-OV-3, > 100 µM (inactive); with SNB-75, 51.8 µM (inactive); with TK-10, > 100 µM (inactive). Moreover, the GI50 with UACC-257 is > 100 µM (inactive).
